PubChem BioAssay AID296 (DTP/NCI, 2004)
Values joined by “and” are separate entries in the source; they are usually repeats but may differ in a detail not shown here. Identical values can stand only once. Results filed as inconclusive are left out.

System: MX-1 breast xenograft, nude mice, tumor weight T/C
Test: NCI In Vivo Anticancer Drug Screen. Data for tumor model Human Mammary Carcinoma MX-1 Xenograft (intrarenal inoculation) in NU/NU Swiss (nude) mice
Conditions: endpoint: mean tumor weight change, higher = larger tumour
How it was run: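 Mice carrying the implanted tumor receive either test agent or vehicle. Tumor size or survival is then recorded for both groups. Results are stated as the treated-to-control quotient.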

[1] = dose: 300.0 mg/kg/injection, schedule: Q04DX003 (sc), vehicle: saline with Tween-80
[2] = dose: 600.0 mg/kg/injection, schedule: Q04DX003 (sc), vehicle: saline with Tween-80
[3] = dose: 1200.0 mg/kg/injection, schedule: Q04DX003 (sc), vehicle: saline with Tween-80
[4] = dose: 2400.0 mg/kg/injection, schedule: Q04DX003 (sc), vehicle: saline with Tween-80
[5] = dose: 300.0 mg/kg/injection, schedule: Q04DX003 (sc), vehicle: Klucel (hydroxypropylcellulose) (HPC)
[6] = dose: 600.0 mg/kg/injection, schedule: Q04DX003 (sc), vehicle: Klucel (hydroxypropylcellulose) (HPC)
[7] = dose: 1200.0 mg/kg/injection, schedule: Q04DX003 (sc), vehicle: Klucel (hydroxypropylcellulose) (HPC)
[8] = dose: 2400.0 mg/kg/injection, schedule: Q04DX003 (sc), vehicle: Klucel (hydroxypropylcellulose) (HPC)
[9] = dose: 100.0 mg/kg/injection, schedule: Q01DX010 (sc), vehicle: saline
[10] = dose: 200.0 mg/kg/injection, schedule: Q01DX010 (sc), vehicle: saline

## CC1C=NNC1=O (centres undefined)
dose: 100.0 mg/kg/injection, schedule: Q01DX010 (sc), vehicle: saline with Tween-80
  T/C: 123 % of control
dose: 400.0 mg/kg/injection, schedule: Q01DX010 (sc), vehicle: saline with Tween-80
  T/C: 62 % of control
dose: 800.0 mg/kg/injection, schedule: Q01DX010 (sc), vehicle: saline with Tween-80
  T/C: 60 % of control

## CN(Cc1cnc2nc(N)nc(N)c2n1)c1ccc(C(=O)N[C@@H](CCC(=O)O)C(=O)O)cc1
dose: 0.5 mg/kg/injection, schedule: Q01DX010 (sc), vehicle: sodium bicarbonate
  T/C: 86 % of control
dose: 1.0 mg/kg/injection, schedule: Q01DX010 (sc), vehicle: sodium bicarbonate
  T/C: 175 % of control

## COC(=O)Nc1ccc(Cc2ccc(NC(=O)OC)cc2)cc1
[1]
  T/C: 87 % of control
[2]
  T/C: 119 % of control
[3]
  T/C: 65 % of control
[4]
  T/C: 48 % of control

## O=S(=O)(c1ccccc1)N1CN2CCN(C2)C1
dose: 200.0 mg/kg/injection, schedule: Q04DX003 (sc), vehicle: saline with Tween-80
  T/C: 58 % of control
dose: 400.0 mg/kg/injection, schedule: Q04DX003 (sc), vehicle: saline with Tween-80
  T/C: 81 % of control
dose: 800.0 mg/kg/injection, schedule: Q04DX003 (sc), vehicle: saline with Tween-80
  T/C: 65 % of control
dose: 1600.0 mg/kg/injection, schedule: Q04DX003 (sc), vehicle: saline with Tween-80
  T/C: 48 % of control

## O=C(/C=C(\Cl)C(=O)NO)NO
dose: 50.0 mg/kg/injection, schedule: Q04DX003 (sc), vehicle: saline
  T/C: 93 % of control
dose: 100.0 mg/kg/injection, schedule: Q04DX003 (sc), vehicle: saline
  T/C: 80 % of control
dose: 200.0 mg/kg/injection, schedule: Q04DX003 (sc), vehicle: saline
  T/C: 77 % of control

## CCN(CC)CCn1[nH]c2c3ccc(=O)cc3sc3c(NCCN)ccc1c32
dose: 6.25 mg/kg/injection, schedule: Q04DX003 (ip), vehicle: water
  T/C: 73 % of control
dose: 12.5 mg/kg/injection, schedule: Q04DX003 (ip), vehicle: water
  T/C: 63 % of control

## CCCCCC#CC1OC12CCCCC2 (centres undefined)
[1]
  T/C: 83 % of control
[2]
  T/C: 101 % of control
[3]
  T/C: 83 % of control
[4]
  T/C: 78 % of control

## C=CCNc1nc2c(s1)CCc1cc(OC)c(OC)cc1-2
[1]
  T/C: 92 % of control
[2]
  T/C: 96 % of control
[3]
  T/C: 80 % of control

## CC(=O)/C(=C\c1ccc(Cl)c(Cl)c1)C(=O)CCN(C)C
dose: 25.0 mg/kg/injection, schedule: Q04DX003 (ip), vehicle: saline
  T/C: 166 % of control
dose: 50.0 mg/kg/injection, schedule: Q04DX003 (ip), vehicle: saline
  T/C: 98 % of control
dose: 100.0 mg/kg/injection, schedule: Q04DX003 (ip), vehicle: saline
  T/C: 83 % of control

## CCC(=O)O[C@H]1CC[C@H]2[C@@H]3CCC4=CC(=O)CC[C@]4(C)[C@H]3CC[C@]12C
[5]
  T/C: 76 % of control
[6]
  T/C: 88 % of control
[7]
  T/C: 74 % of control
[8]
  T/C: 115 % of control

## CN1CCN(CCCN2c3ccccc3Sc3ccc(C(F)(F)F)cc32)CC1
dose: 25.0 mg/kg/injection, schedule: Q01DX010 (sc), vehicle: saline
  T/C: 107 % of control
dose: 50.0 mg/kg/injection, schedule: Q01DX010 (sc), vehicle: saline
  T/C: 61 % of control and 73 % of control
[9]
  T/C: 31 % of control and 52 % of control
[10]
  T/C: 32 % of control

## C1CN2CCC1CC2
dose: 4.69 mg/kg/injection, schedule: Q04DX003 (sc), vehicle: saline with Tween-80
  T/C: 112 % of control
dose: 9.38 mg/kg/injection, schedule: Q04DX003 (sc), vehicle: saline with Tween-80
  T/C: 93 % of control

## Cc1c(CNc2ccc(C(=O)NC(CC(=O)O)C(=O)O)cc2)ccc2nc(N)nc(N)c12 (centres undefined)
dose: 6.0 mg/kg/injection, schedule: Q04DX003 (sc), vehicle: saline with Tween-80
  T/C: 29 % of control
dose: 48.0 mg/kg/injection, schedule: Q04DX003 (sc), vehicle: saline with Tween-80
  T/C: 13 % of control and 33 % of control
dose: 72.0 mg/kg/injection, schedule: Q04DX003 (sc), vehicle: saline with Tween-80
  T/C: 18 % of control and 28 % of control

## CCN(CC)c1ccc2[nH]c3c(C(N)=O)cc(=O)c(=O)c=3oc2c1
dose: 150.0 mg/kg/injection, schedule: Q04DX003 (sc), vehicle: saline with Tween-80
  T/C: 88 % of control
[1]
  T/C: 84 % of control
[3]
  T/C: 101 % of control

## COC1=CCC23C(=O)C=CC(=O)C2(C1)C(=O)c1ccccc1C3=O (centres undefined)
dose: 37.5 mg/kg/injection, schedule: Q04DX003 (ip), vehicle: saline with Tween-80
  T/C: 109 % of control

## CCCC(=O)O
[9]
  T/C: 104 % of control

## NC(=O)c1ncn(C2OC(CO)C(O)C2O)n1 (centres undefined)
dose: 225.0 mg/kg/injection, schedule: Q04DX003 (sc), vehicle: saline
  T/C: 108 % of control
dose: 450.0 mg/kg/injection, schedule: Q04DX003 (sc), vehicle: saline
  T/C: 61 % of control
dose: 900.0 mg/kg/injection, schedule: Q04DX003 (sc), vehicle: saline
  T/C: 45 % of control

## CN1c2c(nc(N)[nH]c2=O)NCC1CCNc1ccc(C(=O)NC(CCC(=O)O)C(=O)O)cc1 (centres undefined)
[9]
  T/C: 83 % of control
dose: 100.0 mg/kg/injection, schedule: Q01DX010 (sc), vehicle: suspension in saline
  T/C: 60 % of control
[10]
  T/C: 76 % of control
dose: 400.0 mg/kg/injection, schedule: Q01DX010 (sc), vehicle: saline
  T/C: 81 % of control
dose: 400.0 mg/kg/injection, schedule: Q01DX010 (sc), vehicle: suspension in saline
  T/C: 25 % of control
dose: 800.0 mg/kg/injection, schedule: Q01DX010 (sc), vehicle: saline
  T/C: 62 % of control

## NC(=O)c1cn(C2OC(CO)C(O)C2O)c2ncnc(N)c12 (centres undefined)
dose: 1.5 mg/kg/injection, schedule: Q04DX003 (sc), vehicle: saline
  T/C: 77 % of control
dose: 3.0 mg/kg/injection, schedule: Q04DX003 (sc), vehicle: saline
  T/C: 61 % of control
dose: 6.0 mg/kg/injection, schedule: Q04DX003 (sc), vehicle: saline
  T/C: 40 % of control

## CCCCCCCCCCCCCCCC(=O)OCC1OC(n2ccc(N)nc2=O)C(O)C1O (centres undefined)
dose: 37.5 mg/kg/injection, schedule: Q04DX003 (sc), vehicle: saline with Tween-80
  T/C: 30 % of control
[2]
  T/C: 11 % of control

## O=c1ssc(=Nc2ccccc2)n1-c1ccccc1
[5]
  T/C: 65 % of control
[6]
  T/C: 95 % of control
[7]
  T/C: 112 % of control
[8]
  T/C: 106 % of control

## COC1C(C)OC(OC2CC(C)(O)Cc3cc4c(c(O)c32)C(=O)c2c(O)cc3c(c2C4=O)OC2OC3(C)C(O)C(N(C)C)C2O)C(OC)C1(C)OC (centres undefined)
dose: 10.0 mg/kg/injection, schedule: Q04DX003 (sc), vehicle: Klucel (hydroxypropylcellulose) (HPC)
  T/C: 82 % of control
dose: 20.0 mg/kg/injection, schedule: Q04DX003 (sc), vehicle: Klucel (hydroxypropylcellulose) (HPC)
  T/C: 94 % of control
dose: 40.0 mg/kg/injection, schedule: Q04DX003 (sc), vehicle: Klucel (hydroxypropylcellulose) (HPC)
  T/C: 84 % of control
dose: 80.0 mg/kg/injection, schedule: Q04DX003 (sc), vehicle: Klucel (hydroxypropylcellulose) (HPC)
  T/C: 76 % of control

## COC1CC(C)C(OC)C2=CC(=O)C=C(NC(=O)/C(C)=C/C=C\C(C)C(OC(N)=O)/C(C)=C\C(C)C1OC)C2=O (centres undefined)
dose: 12.5 mg/kg/injection, schedule: Q04DX003 (sc), vehicle: saline + alcohol
  T/C: 81 % of control
dose: 25.0 mg/kg/injection, schedule: Q04DX003 (sc), vehicle: saline + alcohol
  T/C: 97 % of control

## C[n+]1c(-c2cccc3ccccc23)c2cc(N)ccc2c2ccccc21
dose: 12.0 mg/kg/injection, schedule: Q04DX003 (sc), vehicle: saline
  T/C: 103 % of control
dose: 48.0 mg/kg/injection, schedule: Q04DX003 (sc), vehicle: saline
  T/C: 92 % of control

## C[N+](C)(C)c1ncnc2c1ncn2C1CCCO1 (centres undefined)
dose: 0.25 mg/kg/injection, schedule: Q01DX010 (sc), vehicle: saline
  T/C: 83 % of control
dose: 0.5 mg/kg/injection, schedule: Q01DX010 (sc), vehicle: saline
  T/C: 112 % of control
dose: 1.0 mg/kg/injection, schedule: Q01DX010 (sc), vehicle: saline
  T/C: 50 % of control
dose: 2.0 mg/kg/injection, schedule: Q01DX010 (sc), vehicle: saline
  T/C: 163 % of control

## CN(C)CC(Cl)CCl (centres undefined)
dose: 75.0 mg/kg/injection, schedule: Q04DX003 (sc), vehicle: saline
  T/C: 50 % of control
dose: 150.0 mg/kg/injection, schedule: Q04DX003 (sc), vehicle: saline
  T/C: 85 % of control
dose: 300.0 mg/kg/injection, schedule: Q04DX003 (sc), vehicle: saline
  T/C: 28 % of control
